The values that follow come from paper PMC6273488, “Synthesis and Biological Evaluation of Benzochromenopyrimidinones as Cholinesterase Inhibitors and Potent Antioxidant, Non-Hepatotoxic Agents for Alzheimer’s Disease” (Molecules, 2016).

The target in data set [1] is T1, human recombinant AChE (hAChE) (Homo sapiens, UniProt P22303).
T1 construct: purchased Sigma-Aldrich
Description: biochemical. On the procedure:
Ellman’s assay was followed to evaluate the anticholinesterasic potency of BCPOs using human recombinant AChE (Sigma-Aldrich). 500 U of hAChE were dissolved in 1 mL of a gelatine solution (1% in water) and diluted with demineralized water to give a stock solution of 5 U/mL. […] All assays were performed in 0.1 M phosphate buffer pH 8.0. The assayed compounds or blank (water) (25 µL) were incubated with the enzyme (20 µL) for 5 min at 37 °C in 765 µL of phosphate buffer prior to start the reaction. Then, 20 µL of DTNB and 20 µL of ATC were added. […] IC50 values were determined with GraphPad Prism 5. Each concentration was measured in triplicate. Data are expressed as mean ± SEM.

The subject of data set [2] is HepG2 cells. Description: in vitro. It is filed as cell-based. The conditions noted are these: HepG2, MTT, concentrations up to 1000 μM. The procedure:
(§1) A prerequisite for any effective lead drug is to keep its cytotoxicity at the lowest possible level. In this regard, we submitted the four most promising compounds (3Ab, 3Bb, 3Cb and 3Ba) to an in vitro toxicologic evaluation (MTT assay) using human hepatocellular carcinoma cell line (HepG2) which represents a good probe to evaluate hepatotoxic effects. […].
(§2) HepG2 cells were purchased from American Type Culture Collection. The cells were cultured in Eagle’s Minimum Essential Medium (Ozyme, France) supplemented with 10% fetal bovine serum, 1X non-essential amino acids, 100 units/mL penicillin and […] streptomycin (Dutscher, Brumath, France). Cultures were kept under a CO2/air (5%/95%) humidified atmosphere at 37 °C. Prior to the experiment, cells were seeded in 96-well culture plates at a density of 0.1 × 10^6 cells per well. After 24 h of incubation, the culture medium was refreshed and 100 µL of the test compounds or DMSO (0.1%) were added. […] For the MTT assay, after 24 h of treatment, cells were incubated with 50 µL MTT (0.5 mg/mL, Sigma Aldrich, city, France) at 37 °C for 2 h. Plates were centrifuged, MTT was removed and 100 µL DMSO was distributed per well. The absorbance at 570 nm was measured using microplate reader (brand). Cell viability was expressed as percentage of cell viability compared to controls (DMSO, 0.1%).

Data set [3] in a line: in vitro. The data set is classed as cell-based. The conditions noted are these: human, HepG2 cells, 24 h, MTT, read-out: In vitro toxicity (% cell viability); for viability at 24 h, 1 µM: HepG2, 1 µM; for viability at 24 h, 3 µM: HepG2, 3 µM; for viability at 24 h, 10 µM: HepG2, 10 µM; for viability at 24 h, 30 µM: HepG2, 30 µM; for viability at 24 h, 100 µM: HepG2, 100 µM; for viability at 24 h, 300 µM: HepG2, 300 µM; for viability at 24 h, 1 mM: HepG2, 1 mM. The procedure: as §1, §2

Data set [4] addresses T1, human recombinant AChE (hAChE). Briefly: Kinetic characterization of hAChE inhibition (Lineweaver-Burk). The data set is classed as biochemical. The procedure:
To get insight into the mode of inhibition, the kinetic mechanism of hAChE inhibition by compound 3Bb was investigated through classical Lineweaver-Burk double reciprocal plots.
To estimate the type of inhibition of hAChE, we performed the same experimental protocol as reported for hAChE inhibition. […]. The stock solution of ATC (0.5 mM in a well) was prepared in demineralized water and diluted before use to obtain 0.4, 0.3, 0.2, 0.1 and 0.067 mM substrate solutions. The double reciprocal plots were analysed by a weighted least square procedure that assumed the variance of V to be constant. Each experiment was performed in triplicate. To confirm the mode of inhibition, Cornish-Bowden plots were obtained by plotting S/V (substrate/velocity ratio) versus the inhibitor concentration. Data analysis was performed with GraphPad Prism 5. Inhibition constant (Ki) values were determined by re-plotting slopes from the Lineweaver-Burk plot versus the inhibitor concentration where Ki was determined as the intersect of the line with the x-axis.

Data set [5] can be described thus: Solubility in DMSO (footnote remark). It is filed as physicochemical. The following applies: DMSO at 10 mM and 1 mM.

Molecules are shown by their SMILES. Entries after “also recorded” stand apart in the source; their conditions may differ. Where two headings read alike, the source gives them in different places.

T1 sequence (P22303 32-614): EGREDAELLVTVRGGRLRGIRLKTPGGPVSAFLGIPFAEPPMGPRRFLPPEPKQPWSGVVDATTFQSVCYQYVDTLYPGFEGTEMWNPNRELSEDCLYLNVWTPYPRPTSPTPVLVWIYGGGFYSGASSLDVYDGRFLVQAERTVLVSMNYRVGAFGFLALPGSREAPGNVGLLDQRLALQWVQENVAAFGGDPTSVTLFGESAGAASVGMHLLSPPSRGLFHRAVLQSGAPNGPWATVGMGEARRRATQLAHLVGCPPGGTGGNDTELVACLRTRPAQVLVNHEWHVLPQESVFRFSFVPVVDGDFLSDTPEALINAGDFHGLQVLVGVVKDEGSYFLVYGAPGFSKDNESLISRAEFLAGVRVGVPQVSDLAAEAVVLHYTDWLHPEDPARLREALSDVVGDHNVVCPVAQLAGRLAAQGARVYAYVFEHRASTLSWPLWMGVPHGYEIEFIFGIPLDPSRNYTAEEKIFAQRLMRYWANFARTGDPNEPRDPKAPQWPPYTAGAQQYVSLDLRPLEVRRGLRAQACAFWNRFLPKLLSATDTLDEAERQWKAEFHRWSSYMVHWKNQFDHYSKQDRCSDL

Consider `O=c1c2c(nc3n1CCCC3)Oc1ccc3ccccc3c1C2c1ccccc1` (stereo not shown) [3Ab, 15-Phenyl-10,11,12,15-tetrahydro-9H-benzo[5,6]chromeno[2,3-d]pyrido[1,2-a]pyrimidin-14-one], for which the IC50 in data set [1] (mean ± SEM) was 3.66 ± 0.059 µM. Also, the “hepatotoxicity on HepG2 cells (in words)” value in data set [2] is on record as “non-hepatotoxic”. In addition, in data set [3], the viability at 24 h, 1 µM amounted to 99.3 ± 4%; the viability at 24 h, 3 µM amounted to 95.3 ± 2.3%; the viability at 24 h, 10 µM was 98.5 ± 2.5%; the viability at 24 h, 30 µM was found to be 91.5 ± 4.5%. Moreover, in data set [3], the viability at 24 h, 100 µM stood at 101 ± 3.1%; the viability at 24 h, 300 µM is 110 ± 5.5%; the viability at 24 h, 1 mM was determined as 110 ± 4.4%.
For the compound `COc1cccc(C2c3c(nc4n(c3=O)CCC4)Oc3ccc4ccccc4c32)c1` (stereo not shown) [3Ba, 14-(3′Methoxyphenyl)-10,11-dihydro-14H-benzo[5,6]chromeno[2,3-d]pyrrolo[1,2-a]pyrimidin-13(9H)-one], the IC50 in data set [1] (mean ± SEM) worked out at 1.53 ± 0.025 µM. Moreover, the “hepatotoxicity on HepG2 cells (in words)” value in data set [2] was “non-hepatotoxic”. In addition, in data set [3], the viability at 24 h, 1 µM is 109 ± 2%; the viability at 24 h, 3 µM is 108 ± 4.8%; the viability at 24 h, 10 µM came out at 106 ± 3.5%; the viability at 24 h, 30 µM came out at 99.2 ± 4.2%. In addition, in data set [3], the viability at 24 h, 100 µM came out at 97 ± 5.4%; the viability at 24 h, 300 µM was found to be 108 ± 2.8%; the viability at 24 h, 1 mM is 120 ± 6.8%.
For `COc1cccc(C2c3c(nc4n(c3=O)CCCC4)Oc3ccc4ccccc4c32)c1` (stereo not shown) [3Bb, 15-(3′-Methoxyphenyl)-10,11,12,15-tetrahydro-9H-benzo[5,6]chromeno[2,3-d]pyrido[1,2-a]pyrimidin-14-one], in data set [1], the IC50 was determined as 1.28 ± 0.03 µM. Further, the IC50 in data set [1] (mean ± SEM) worked out at 1.28 ± 0.032 µM. Besides, the “mode of hAChE inhibition” value in data set [4] (Lineweaver-Burk double reciprocal plot) is recorded as “mixed-type inhibition; also recorded: mixed-type hAChE inhibitor”. Further, the Ki in data set [4] (estimated from Lineweaver-Burk replots, read-out: Ki (dissociation constant for the enzyme-inhibitor complex)) is 0.38 µM. Besides, in data set [2], the “hepatotoxicity on HepG2 cells (in words)” value was “non-hepatotoxic”. Further, in data set [3], the viability at 24 h, 1 µM turned out to be 108 ± 2.4%; the viability at 24 h, 3 µM turned out to be 111 ± 8.7%; the viability at 24 h, 10 µM was 105 ± 4.2%; the viability at 24 h, 30 µM was 104 ± 5%. Moreover, in data set [3], the viability at 24 h, 100 µM worked out at 112 ± 2.3%; the viability at 24 h, 300 µM was 118 ± 7.3%; the viability at 24 h, 1 mM was found to be 128 ± 5%.
Regarding `Cc1ccc(C2c3c(nc4n(c3=O)CCCC4)Oc3ccc4ccccc4c32)cc1` (stereo not shown) [3Cb, 15-(4′-Methylphenyl)-10,11,12,15-tetrahydro-9H-benzo[5,6]chromeno[2,3-d]pyrido[1,2-a]pyrimidin-14-one], the IC50 in data set [1] (mean ± SEM) came to 1.59 ± 0.024 µM. Further, in data set [5], the “solubility in DMSO (in words)” value was “poor solubility in DMSO at 10 mM and 1 mM”. Besides, in data set [2], the “hepatotoxicity on HepG2 cells (in words)” value is on record as “non-hepatotoxic”. Also, in data set [3], the viability at 24 h, 1 µM was 106 ± 7%; the viability at 24 h, 3 µM turned out to be 103 ± 10.8%; the viability at 24 h, 10 µM came to 110 ± 9.1%; the viability at 24 h, 30 µM stood at 113 ± 5.8%. In addition, in data set [3], the viability at 24 h, 100 µM came to 103 ± 5.7%; the viability at 24 h, 300 µM was determined as 113 ± 5.2%; the viability at 24 h, 1 mM is 110 ± 8%.
